Results published in patent US20250186404A1, “METHODS OF USING A (THIAZOLYL)BENZENESULFONAMIDE DERIVATIVE” (Cyteir Therapeutics, Inc., priority 2023, published 2025).
pIC50: −log10 of the molar value.

What was measured:
Type in all cases: cell-based
Human MCT2 = target: T1, Human MCT2 (Homo sapiens, UniProt O60669); test: Inhibition of 3BP import (rescue of viability) in MCT2-overexpressing INS-1 cells; details: INS-1 cells over-expressing human MCT2, rescue from LC100 3BP
T1 construct: expressed in transfected cells
T1 sequence (O60669 1-478): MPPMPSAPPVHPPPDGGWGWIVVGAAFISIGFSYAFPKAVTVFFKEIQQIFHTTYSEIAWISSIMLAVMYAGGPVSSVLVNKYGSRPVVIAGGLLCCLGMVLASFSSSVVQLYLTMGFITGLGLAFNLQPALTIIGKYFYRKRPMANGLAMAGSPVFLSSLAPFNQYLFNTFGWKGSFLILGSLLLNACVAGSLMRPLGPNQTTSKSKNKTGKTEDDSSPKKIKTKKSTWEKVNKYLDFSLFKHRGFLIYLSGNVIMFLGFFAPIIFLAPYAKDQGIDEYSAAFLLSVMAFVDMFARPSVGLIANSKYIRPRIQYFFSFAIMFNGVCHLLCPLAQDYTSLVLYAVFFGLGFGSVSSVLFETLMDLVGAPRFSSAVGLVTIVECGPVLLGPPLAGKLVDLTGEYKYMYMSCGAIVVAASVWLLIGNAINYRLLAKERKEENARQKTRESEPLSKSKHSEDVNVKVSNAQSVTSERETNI
Experimental: (§1) Human MCT1-4 were stably expressed in INS-1 rat pancreatic islet B-cells, which are deficient in endogenous MCT expression. 3-Bromopyruvate (3BP), a highly reactive and cytotoxic monocarboxylate, can enter the INS-1 cells via the overexpressed MCT isoform, resulting in rapid cell death. However, prevention of 3BP transport into the cell by an MCT inhibitor can prevent 3BP-mediated cell death (FIG. 16).
(§2) INS-1 cells over-expressing an MCT paralog were treated with a titration of 3BP to determine the lowest concentration that results in 100% cell killing (LC100). The INS-1 cells were then pre-treated with a titration of Compound 67A before exposure to the LC100 concentration of 3BP specific for that MCT-over-expressing cell line, and rescue of cell viability was measured (FIG. 17).

Human MCT4 = target: T2, Human MCT4 (Homo sapiens, UniProt O15427); test: Inhibition of 3BP import (rescue of viability) in MCT4-overexpressing INS-1 cells; details: INS-1 cells over-expressing human MCT4, rescue from LC100 3BP
T2 construct: expressed in transfected cells
T2 sequence (O15427 2-465 limits assumed): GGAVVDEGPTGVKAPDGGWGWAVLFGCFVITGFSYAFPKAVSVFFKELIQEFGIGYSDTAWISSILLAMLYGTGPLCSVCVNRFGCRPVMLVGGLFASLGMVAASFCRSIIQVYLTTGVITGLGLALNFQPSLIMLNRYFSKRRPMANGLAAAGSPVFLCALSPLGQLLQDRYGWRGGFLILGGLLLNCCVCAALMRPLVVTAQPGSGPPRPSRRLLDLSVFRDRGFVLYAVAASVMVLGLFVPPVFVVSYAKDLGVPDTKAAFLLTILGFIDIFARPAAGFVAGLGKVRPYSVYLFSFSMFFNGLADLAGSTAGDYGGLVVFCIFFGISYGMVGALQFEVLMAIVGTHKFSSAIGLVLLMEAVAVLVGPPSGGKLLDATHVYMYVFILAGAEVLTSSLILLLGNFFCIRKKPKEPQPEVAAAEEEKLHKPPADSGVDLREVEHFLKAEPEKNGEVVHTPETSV
T2 sequence (P26453 23-388 partner): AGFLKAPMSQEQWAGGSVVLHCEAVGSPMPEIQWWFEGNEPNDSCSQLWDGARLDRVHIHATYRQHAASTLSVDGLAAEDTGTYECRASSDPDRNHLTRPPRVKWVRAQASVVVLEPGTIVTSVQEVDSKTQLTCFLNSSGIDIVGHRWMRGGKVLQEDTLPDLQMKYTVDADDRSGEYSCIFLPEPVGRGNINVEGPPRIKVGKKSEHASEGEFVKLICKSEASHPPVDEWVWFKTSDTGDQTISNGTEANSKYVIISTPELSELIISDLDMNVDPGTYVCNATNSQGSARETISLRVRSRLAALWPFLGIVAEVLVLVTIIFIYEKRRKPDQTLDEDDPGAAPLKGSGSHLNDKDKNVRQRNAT
Experimental: as §1, §2

human MCT1 = target: T3, human MCT1 (Homo sapiens, UniProt P53985); test: Inhibition of 3BP import (rescue of viability) in MCT1-overexpressing INS-1 cells; details: INS-1 cells over-expressing human MCT1, rescue from LC100 3BP
T3 construct: expressed in transfected cells
T3 sequence (P53985 1-500): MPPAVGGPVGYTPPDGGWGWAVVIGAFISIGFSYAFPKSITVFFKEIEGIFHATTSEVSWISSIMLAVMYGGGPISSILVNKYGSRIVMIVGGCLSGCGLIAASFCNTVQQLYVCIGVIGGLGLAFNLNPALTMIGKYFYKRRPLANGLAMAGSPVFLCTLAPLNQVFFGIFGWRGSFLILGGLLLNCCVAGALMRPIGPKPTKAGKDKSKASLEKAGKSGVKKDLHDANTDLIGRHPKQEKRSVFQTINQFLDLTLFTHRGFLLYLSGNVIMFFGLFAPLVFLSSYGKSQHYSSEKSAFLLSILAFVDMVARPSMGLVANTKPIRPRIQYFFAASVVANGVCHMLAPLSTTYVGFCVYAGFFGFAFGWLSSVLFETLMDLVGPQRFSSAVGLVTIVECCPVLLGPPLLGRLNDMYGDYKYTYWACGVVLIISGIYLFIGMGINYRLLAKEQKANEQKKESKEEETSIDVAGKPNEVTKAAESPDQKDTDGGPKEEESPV
T3 sequence (P26453 23-388 partner): T2 sequence (P26453 23-388 partner)
Experimental: as §1, §2

[1] = system: ES2 ovarian cancer cell line; test: ES2 cytotoxicity (Cytotox Green) and cell viability (CellTiterGlo, NCI method)
Experimental: MCT4 was over-expressed in ES2 cells following lentiviral transduction. Cell viability was assessed in empty vector (EV) control and MCT4 over-expressing cells after Compound 67A treatment and relative cell growth was quantified using the NCI method (FIG. 10).
The ES2 ovarian cancer cell line was treated with a titration of Compound 67A, and cytotoxicity was assessed after 24 hours of treatment with Cytotox Green and cell viability after 96 hours with CellTiterGlo (FIG. 18).

[2] = system: Daudi human lymphoma cells; test: Reversal of 3-bromopyruvate-induced cytotoxicity; details: 3-bromopyruvate (MCT1 substrate)
Experimental: Compound 67A data across 439 cell lines was cross-compared with available DepMap gene essentiality data and gene expression data. A genome-wide CRISPR screen identified genes that influenced sensitivity to Compound 67A. MDCKII cells expressing human MCT1 were treated with Compound 67A and transport of the MCT1 substrate, 2-thiophene-glyoxylic acid, was quantified by LC-MS. Compound 67A-mediated reversal of cytotoxicity induced by 3-bromopyruvate, an MCT1 substrate, was measured in Daudi human lymphoma cells. Lactate was measured using Lactate-Glo. Extracellular acidification and O2 consumption were measured by Seahorse.

Compound	pIC50 (Human MCT2)	pIC50 (Human MCT4)	pIC50 (human MCT1)	cytotoxic response ([1]; ES2, Cytotox Green after 24 hours and CellTiterGlo after 96 hours)	effect of MCT4 over-expression on anti-proliferative effects ([1]; ES2 MCT4 over-expressing vs empty vector control, NCI method)	protection from cytotoxic effects of 3-bromopyruvate [2]
O=C(Nc1ccccc1C(=O)O)c1cc(S(=O)(=O)c2ccccc2)ccc1Cl [BAY8002]	5.00 to 6.00	< 4.48	5.00 to 6.00			
CC(C)OC(=O)Nc1ccc(-c2cnc([C@H]3CC[C@H](NC(=O)OC(C)C)CC3)s2)c(S(=O)(=O)NC(C)(C)C)c1 [Compound 67A]	< 4.48	5.00 to 6.00	6.00 to 7.00	induced a clear cytotoxic response	significantly reduced Compound 67A-mediated anti-proliferative effects	protected cells from the cytotoxic effects of 3-bromopyruvate
AZD3965	5.00 to 6.00	< 4.48	> 7.00			
